Data as given in patent US10723733B2, “Hepatitis B antiviral agents” (Enanta Pharmaceuticals, Inc., priority 2017, dated 2020).

Experiments:
[1] = tested on: HBV; test: HepAD38 antiviral assay: reduction of viral product accumulation (virion DNA by qPCR, HBsAg/HBeAg by ELISA); assay type: cell-based; conditions: Hepatitis B virus, 120 h, HepAD38 cells, 50% reduction of viral product accumulation vs no drug controls, five days after compound addition
Method: Methods: HepAD38 cells are maintained as previously reported (Ladner et al, Antimicrob. Agents Chemother. 1997, […], 1715). Briefly, cells are passaged upon attaining confluency in DMEM/F12 media in the presence of 10% FBS, Penn/Strep, 250 μg/mL G418, and 1 μg/ml tetracycline. Novel compounds are screened by first washing cells three times with PBS to remove tetracycline, and plating in 96 well plates at 35,000 cells/well. Compounds dissolved in DMSO are then diluted 1:200 into wells containing cells. Five days after compound addition, material is harvested for analysis. For an extended 8 day analysis, cells are plated and treated as described above, but media and compound are refreshed on d2 and d5 post initial treatment.
On harvest day, virion DNA is obtained by lysing with Sidestep Lysis and Stabilization Buffer and then quantified via quantitative real time PCR. Commercially available ELISA kits are used to quantitate the viral proteins HBsAg (Alpco) or HbeAg (US Biological) by following the manufacturer's recommended protocol after diluting samples to match the linear range of their respective assays. Irrespective of readout, compound concentrations that reduce viral product accumulation in the cell lysates or supernatants by 50% relative to no drug controls (EC50) are reported; EC50 ranges are as follows: A<0.1 μM; B 0.1-1 μM; C>1 μM.

[2] = Compound toxicity, ATPLite total ATP levels; assay type: cell-based; conditions: human, HepG2 cells, 50% reduction of total ATP levels (ATPLite), three days after compound addition
Method: Compound toxicity is evaluated by seeding cells at 15,000 cells/well and treating with compound as described above.

COC(=O)N[C@]1(CO)CC2=C(c3ccn(C(F)F)n3)[C@H](c3ccc(F)cc3Cl)N=C(c3nccs3)N2C1 [Example 61]
EC50 ([1]; class symbols): < 100 nM
CC50 at 3 days [2]: > 25000 nM

O=C1N[C@@](CO)(CC2=C(c3ccn(C(F)F)n3)[C@H](c3ccc(F)cc3Cl)N=C(c3nccs3)N2)CO1 [Example 94]
EC50 ([1]; class symbols): < 100 nM
CC50 at 3 days [2]: > 25000 nM

O=S(=O)(N[C@H]1CC2=C(c3cnn(C(F)(F)F)c3)[C@H](c3ccc(F)cc3Cl)N=C(c3nccs3)N2C1)C1CC1 [Example 8]
EC50 ([1]; class symbols): < 100 nM
CC50 at 3 days [2]: 10000 to 25000 nM

O=S(=O)(N[C@H]1CC2=C(c3cnn(C(F)F)c3)[C@H](c3ccc(F)cc3Cl)N=C(c3nccs3)N2C1)C1CCOCC1 [Example 56]
EC50 ([1]; class symbols): < 100 nM
CC50 at 3 days [2]: > 25000 nM

O=S(=O)(N[C@H]1CC2=C(c3ccn(C4CC4)n3)[C@H](c3ccc(F)cc3Cl)N=C(c3nccs3)N2C1)C1CC1 [Example 3]
EC50 ([1]; class symbols): < 100 nM
CC50 at 3 days [2]: > 25000 nM

CN(C)S(=O)(=O)N[C@H]1CC2=C(c3cnn(C(F)F)c3)[C@H](c3ccc(F)cc3Cl)N=C(c3nccs3)N2C1 [Example 13]
EC50 ([1]; class symbols): < 100 nM
CC50 at 3 days [2]: > 25000 nM

COCCS(=O)(=O)N[C@H]1CC2=C(c3cnn(C(F)F)c3)[C@H](c3ccc(F)cc3Cl)N=C(c3nccs3)N2C1 [Example 57]
EC50 ([1]; class symbols): < 100 nM
CC50 at 3 days [2]: > 25000 nM

OC[C@@]1(O)CC2=C(c3ccn(C(F)F)n3)[C@H](c3ccc(F)cc3Cl)N=C(c3nccs3)N2C1 [Example 122]
EC50 ([1]; class symbols): 100 to 1000 nM

C=CCOC[C@]1(CC2=C(c3ccn(C(F)F)n3)[C@H](c3ccc(F)cc3Cl)N=C(c3nccs3)N2)COC(=O)N1 [Example 100]
EC50 ([1]; given as numeric bound): > 400 nM

OCC(O)(CO)CC1=C(c2ccn(C(F)F)n2)[C@H](c2ccc(F)cc2Cl)N=C(c2nccs2)N1 [Example 111]
EC50 ([1]; class symbols): < 100 nM

CCOC(=O)NC[C@H]1CCC(=O)N1CC1=C(c2ccn(C(F)F)n2)[C@H](c2ccc(F)cc2Cl)N=C(c2nccs2)N1 [Example 134]
EC50 ([1]; given as numeric bound): > 400 nM

COC(=O)CC[C@]1(CC2=C(c3ccn(C(F)F)n3)[C@H](c3ccc(F)cc3Cl)N=C(c3nccs3)N2)COC(=O)N1 [Example 106]
EC50 ([1]; given as numeric bound): > 400 nM

COC[C@]1(CC2=C(c3ccn(C(F)F)n3)[C@H](c3ccc(F)cc3Cl)N=C(c3nccs3)N2)COC(=O)N1 [Example 99]
EC50 ([1]; given as numeric bound): > 400 nM

CN(C)C(=O)NCC1CC2=C(c3cnn(C(F)F)c3)[C@H](c3ccc(F)cc3Cl)N=C(c3nccs3)N2C1 (stereo partly drawn) [Example 32]
EC50 ([1]; given as numeric bound): > 100 nM

COC(=O)C(O)(CO)CC1=C(c2ccn(C(F)F)n2)[C@H](c2ccc(F)cc2Cl)N=C(c2nccs2)N1 (stereo partly drawn) [Example 112]
EC50 ([1]; given as numeric bound): > 400 nM

COC(=O)[C@]1(N)CC2=C(c3ccn(C(F)F)n3)[C@H](c3ccc(F)cc3Cl)N=C(c3nccs3)N2C1 [Example 75]
EC50 ([1]; given as numeric bound): > 400 nM

CC(C)S(=O)(=O)N[C@H]1CC2=C(c3cnn(C(F)F)c3)[C@H](c3ccc(F)cc3Cl)N=C(c3nccs3)N2C1 [Example 24]
EC50 ([1]; class symbols): < 100 nM

COC(=O)[C@]1(CC2=C(c3ccn(C(F)F)n3)[C@H](c3ccc(F)cc3Cl)N=C(c3nccs3)N2)COC(=O)N1 [Example 93]
EC50 ([1]; class symbols): < 100 nM

[N-]=[N+]=N[C@]1(CO)CC2=C(c3cnn(C(F)F)c3)[C@H](c3ccc(F)cc3Cl)N=C(c3nccs3)N2C1 [Example 50]
EC50 ([1]; class symbols): < 100 nM

O=S(=O)(NC1CC1)N[C@H]1CC2=C(c3cnn(C(F)F)c3)[C@H](c3ccc(F)cc3Cl)N=C(c3nccs3)N2C1 [Example 12]
EC50 ([1]; class symbols): < 100 nM
CC50 at 3 days [2]: 10000 to 25000 nM

NS(=O)(=O)N[C@H]1CC2=C(c3cnn(C(F)F)c3)[C@H](c3ccc(F)cc3Cl)N=C(c3nccs3)N2C1 [Example 9]
EC50 ([1]; class symbols): < 100 nM
CC50 at 3 days [2]: > 25000 nM

[N-]=[N+]=NCC1(F)CC2=C(c3cnn(C(F)F)c3)[C@H](c3ccc(F)cc3Cl)N=C(c3nccs3)N2C1 (stereo partly drawn) [Example 41]
EC50 ([1]; given as numeric bound): > 400 nM

CS(=O)(=O)NC[C@]1(O)CC2=C(c3ccn(C(F)F)n3)[C@H](c3ccc(F)cc3Cl)N=C(c3nccs3)N2C1 [Example 118]
EC50 ([1]; given as numeric bound): > 400 nM

O=C1N[C@](CC2=C(c3ccn(C(F)F)n3)[C@H](c3ccc(F)cc3Cl)N=C(c3nccs3)N2)(C(=O)O)CO1 [Example 103]
EC50 ([1]; given as numeric bound): > 400 nM

C=CC[C@]1(COS(C)(=O)=O)CC2=C(c3cnn(C(F)F)c3)[C@H](c3ccc(F)cc3Cl)N=C(c3nccs3)N2C1 [Example 39]
EC50 ([1]; given as numeric bound): > 400 nM

COC(=O)NC[C@H]1CN(CC2=C(c3ccn(C(F)F)n3)[C@H](c3ccc(F)cc3Cl)N=C(c3nccs3)N2)C(=O)O1 [Example 125]
EC50 ([1]; given as numeric bound): > 400 nM

O=C(N[C@H]1CC2=C(c3cnn(C(F)F)c3)[C@H](c3ccc(F)cc3Cl)N=C(c3nccs3)N2C1)NS(=O)(=O)c1ccccc1 [Example 17]
EC50 ([1]; given as numeric bound): > 100 nM

CS(=O)(=O)OC[C@@]1(F)CC2=C(c3cnn(C(F)F)c3)[C@H](c3ccc(F)cc3Cl)N=C(c3nccs3)N2C1 [Example 35]
EC50 ([1]; class symbols): 100 to 1000 nM

O=S(=O)(CC1=C(c2cnn(C(F)F)c2)[C@H](c2ccc(F)cc2Cl)N=C(c2nccs2)N1)C1CCCC1 [Example 145]
EC50 ([1]; given as numeric bound): > 400 nM

CNS(=O)(=O)N[C@H]1CC2=C(c3cnn(C(F)F)c3)[C@H](c3ccc(F)cc3Cl)N=C(c3nccs3)N2C1 [Example 11]
EC50 ([1]; class symbols): < 100 nM
CC50 at 3 days [2]: > 25000 nM

COC(=O)[C@@]1(CC2=C(c3ccn(C(F)F)n3)[C@H](c3ccc(F)cc3Cl)N=C(c3nccs3)N2)COC(=O)N1 [Example 89]
EC50 ([1]; given as numeric bound): > 400 nM

O=S(=O)(N[C@H]1CC2=C(c3cnn(C4CC4)c3)[C@H](c3ccc(F)cc3Cl)N=C(c3nccs3)N2C1)C1CC1 [Example 6]
EC50 ([1]; class symbols): < 100 nM
CC50 at 3 days [2]: > 25000 nM

CS(=O)(=O)N[C@H]1CC2=C(c3cnn(C(F)F)c3)[C@H](c3ccc(F)cc3Cl)N=C(c3nccs3)N2C1 [Example 10]
EC50 ([1]; class symbols): < 100 nM
CC50 at 3 days [2]: > 25000 nM

CC(C)n1cc(C2=C3C[C@H](NS(=O)(=O)C4CC4)CN3C(c3nccs3)=N[C@H]2c2ccc(F)cc2Cl)cn1 [Example 5]
EC50 ([1]; class symbols): < 100 nM

COC(=O)[C@@]1(NS(C)(=O)=O)CC2=C(c3ccn(C(F)F)n3)[C@H](c3ccc(F)cc3Cl)N=C(c3nccs3)N2C1 [Example 67]
EC50 ([1]; given as numeric bound): > 400 nM

C[C@H]1OC[C@@](F)(CC2=C(c3cnn(C(F)F)c3)[C@H](c3ccc(F)cc3Cl)N=C(c3nccs3)N2)CO1 [Example 140]
EC50 ([1]; class symbols): 100 to 1000 nM

CS(=O)(=O)OCC1CC2=C(c3cnn(C(F)F)c3)[C@H](c3ccc(F)cc3Cl)N=C(c3nccs3)N2C1 (stereo partly drawn) [Example 28]
EC50 ([1]; given as numeric bound): > 100 nM

CS(=O)(=O)OC[C@@]1(N=[N+]=[N-])CC2=C(c3cnn(C(F)F)c3)[C@H](c3ccc(F)cc3Cl)N=C(c3nccs3)N2C1 [Example 51]
EC50 ([1]; class symbols): 100 to 1000 nM

[N-]=[N+]=NC[C@]1(O)CC2=C(c3ccn(C(F)F)n3)[C@H](c3ccc(F)cc3Cl)N=C(c3nccs3)N2C1 [Example 114]
EC50 ([1]; class symbols): 100 to 1000 nM

O=S(=O)(N[C@H]1CC2=C(c3cnn(C(F)F)c3)[C@H](c3ccc(F)cc3Cl)N=C(c3nccs3)N2C1)C1CC1 [Example 1]
EC50 ([1]; class symbols): < 100 nM
CC50 at 3 days [2]: > 25000 nM

COC(=O)NCC1CC2=C(c3cnn(C(F)F)c3)[C@H](c3ccc(F)cc3Cl)N=C(c3nccs3)N2C1 (stereo partly drawn) [Example 31]
EC50 ([1]; given as numeric bound): > 100 nM
